Measured values from the Kinase Knowledgebase extract (Sharma et al. 2016).

Tests used:
[1] = molecular target: PIK3CA, P42336 [Wild Type]; assay: Inhibition of PIK3CA (Wild Type) Kinase Activity
[2] = molecular target: PIK3CA (UniProt P42336); assay: Inhibition of PIK3CA Kinase Activity
Sequence of PIK3CA (P42336 whole entry, looked up): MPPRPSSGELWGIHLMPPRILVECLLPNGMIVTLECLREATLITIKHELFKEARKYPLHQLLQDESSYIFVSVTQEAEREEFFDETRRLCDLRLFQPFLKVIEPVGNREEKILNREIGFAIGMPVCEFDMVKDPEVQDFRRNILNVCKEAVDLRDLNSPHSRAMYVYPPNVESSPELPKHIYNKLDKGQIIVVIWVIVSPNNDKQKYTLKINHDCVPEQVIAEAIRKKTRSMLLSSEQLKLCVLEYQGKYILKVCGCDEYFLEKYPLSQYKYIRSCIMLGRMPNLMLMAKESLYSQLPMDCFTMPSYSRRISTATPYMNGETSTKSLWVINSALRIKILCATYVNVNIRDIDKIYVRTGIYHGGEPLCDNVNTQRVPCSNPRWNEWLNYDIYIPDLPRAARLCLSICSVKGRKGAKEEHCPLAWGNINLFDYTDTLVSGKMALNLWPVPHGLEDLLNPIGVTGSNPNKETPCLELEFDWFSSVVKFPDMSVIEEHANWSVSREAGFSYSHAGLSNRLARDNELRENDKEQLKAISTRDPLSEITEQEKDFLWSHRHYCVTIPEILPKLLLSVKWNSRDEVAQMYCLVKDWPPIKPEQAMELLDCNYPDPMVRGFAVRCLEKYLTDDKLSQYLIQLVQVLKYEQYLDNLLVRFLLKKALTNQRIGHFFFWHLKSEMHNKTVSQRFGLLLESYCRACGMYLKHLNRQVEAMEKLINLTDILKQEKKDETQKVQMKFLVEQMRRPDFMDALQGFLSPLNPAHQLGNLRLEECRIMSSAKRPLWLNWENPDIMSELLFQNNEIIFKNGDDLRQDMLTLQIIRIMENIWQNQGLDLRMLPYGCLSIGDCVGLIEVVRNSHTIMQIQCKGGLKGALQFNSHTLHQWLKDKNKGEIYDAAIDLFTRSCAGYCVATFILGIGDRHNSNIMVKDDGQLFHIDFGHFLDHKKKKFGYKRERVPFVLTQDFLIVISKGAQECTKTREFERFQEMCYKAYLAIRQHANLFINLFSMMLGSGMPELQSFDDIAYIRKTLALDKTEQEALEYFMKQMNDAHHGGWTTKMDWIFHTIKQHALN

Sequence of PIK3CA, P42336 [Wild Type] (P42336 whole entry, looked up): as above

SMILES	IC50 [1]	IC50 [2]
CCCCc1c(N2CCOCC2)oc2ccccc2c1=O	25 µM	48 µM
CCc1c(N2CCOCC2)oc2ccccc2c1=O	28 µM	4.4 µM
Cc1c(N2CCOCC2)oc2ccccc2c1=O	33 µM	40 µM
CC(C)c1c(N2CCOCC2)oc2ccccc2c1=O	51 µM	> 200 µM
O=c1cc(N2CCOCC2)oc2ccccc12	2.6 µM	15 µM
CCCc1c(N2CCOCC2)oc2ccccc2c1=O	31 µM	68 µM
O=c1c(-c2ccccc2)c(N2CCOCC2)oc2ccccc12	> 200 µM	> 200 µM
O=c1c(Cc2ccccc2)c(N2CCOCC2)oc2ccccc12	> 200 µM	> 200 µM
